The results in this text go back to US9572862B2, “Methods for promoting lipolysis and oxidation in liver and adipose tissue using catestatin” (The Regents of the University of California, priority 2012, dated 2017).

One test deals with 3T3-L1 adipocytes. As to the kind of experiment: Leptin in adipocyte culture media after CST. The conditions noted are these: cultured 3T3-L1 adipocytes. The test is classed as cell-based. As to the method:
FIG. 1. Plasma parameters of wild-type (WT) and Chga-KO mice treated with saline or CST. (A) Plasma CST from saline or CST (5 μg/g BW, i.p./day) treated WT mice (28 week old) on normal chow (NCD) and high fat diet (60% fat for 16 weeks) as well as from Chga-KO mice (28 week old) on NCD. Body weights (B) and epididymal fat pad size normalized to body weight (C) in 28 week old WT and Chga-KO mice treated with saline or CST for 12 days. Plasma triglyceride (TG) (D), glycerol (E), non-esterified fatty acids (NEFA) (F), and leptin (G) in 28 week old WT and Chga-KO mice after treatment with saline or CST for 12 days. (H) Leptin in adipocyte culture media after treatment with saline or CST.
Mice were fasted for 12 hr prior to blood draw. Triglycerides (TG) and non-esterified fatty acids (NEFA) were assayed using kits from Wako Diagnostics (Richmond, Va.). Glycerol was assayed using a kit from Sigma (St Louis, Mo.). Media from the explant cultures and mouse serum were analysed for glycerol and NEFA as a measure of lipolysis. […]
Oxidation of radiolabeled palmitate in the homogenates of adipose tissue explants as described previously (45). […] Fatty acid oxidation in cells was determined by modifying a published method (46). […] The filter discs were counted to determine the amount of ^14CO2 absorbed in the papers. […]

For a further test, the system named is Chga-KO mice. As to the kind of experiment: Incorporation and oxidation of 14C-palmitate in vivo. The note with it: for 14C-palmitate incorporation into lipids: CST 12 days. As for the experimental part: FIG. 3. Effects of CST on lipogenesis from fatty acid and fatty acid oxidation in hepatic and adipose tissues. Incorporation of ^14C-palmitate into lipids in adipose (A) and liver (B) in Chga-KO mice after saline or CST treatment (5 μg/g BW, i.p./day) for 12 days. Partial oxidation to acid soluble metabolites (ASM) in adipose tissue (C) and liver (D). Complete oxidation to ^14CO2 in hepatocytes (HepG2) and adipocytes (3T3-L1) after saline or CST treatment (E).
Mice were injected with saline or CST (5 μg/g BW, i.p.; […]) for 12 days. One hr after the final injection, U-^14C-palmitate (5 μCi, 100 μl of 0.2 mM, i.p.) was injected and mice were sacrificed 3 hr later. Liver and adipose tissues (˜100 mg) were homogenized in 0.8 ml 3.5 N perchloric acid and extracted by vortexing in 3 ml of a mixture of methanol and chloroform (2:1, v/v). To the final homogenate, 1.2 ml of 3.5 N perchloric acid was added. The mixture was vortexed and centrifuged. The lower (chloroform) layer contained all the lipids derived from the incorporation of ^14C-palmitate, whereas the upper acidic layer contained partially oxidized acid-soluble metabolites (ASM) of ^14C-palmitate. The lower layer was further fractionated by thin layer chromatography on silica gel plates using hexane: diethyl ether: acetic acid (79:20:1, v/v/v) mixture as the developing solvent. Lipogenesis from palmitate was determined based on the radioactivity of the free palmitic acid band compared to other lipids (phospholipids, triglycerides, diacylglycerol, etc.) on the TLC plate. Complete oxidation of ^14C-palmitate was measured in cultured cells but not in mice.

The subject of a further test is phospholipase C (PLC). The note with it: 3T3-L1 adipocytes. As to the method:
FIG. 5. Regulation of adrenergic signaling by CST as measured by cAMP production, phospholipase C activity, and lipolytic glycerol release. (A) Effects of CST (100 nM, 10 min) on cAMP production in PC-12 and 3T3-L1 cells pretreated with saline or isoproterenol (ISO) (10 μM) for 10 min. (B) Effects of CST on phospholipase C activity in 3T3-L1 adipocytes pretreated with phenylephrine or epinephrine (10 μM for 10 min). (C) Effects of CST on glycerol release from adipocytes pretreated with ISO, phenylephrine (PEP), and phentolamine (PTA) (10 μM for 10 min).

For the next test, the system named is HFD-fed Chga-KO mice. As to the kind of experiment: Peptide supplementation to HFD-fed Chga-KO mice (insulin sensitivity). The test is classed as in vivo. The note with it: HFD (60%)-fed Chga-KO mice.
For a further test, the system named is CST-KO mice. As to the kind of experiment: Palmitate oxidation and hepatic gene expression in CST-KO mice. The test is classed as in vivo. An excerpt:
FIG. 14. Palmitate oxidation. CST augmented palmitate oxidation in liver (A) and muscle (B) of both NCD- and 60% HFD-fed mice. Hepatic expression of genes involved in fatty acid oxidation such as Cpt1α(C), Acox (D) and Pparα (E). Augmented expression of these genes in Chga-KO mice indicates increased fatty acid oxidation in liver. In contrast, decreased expression in CST-KO mice indicates decreased fatty acid oxidation in liver, which was restored by supplementation with CST. Expression of lipogenic & gluconeogenic genes (F). Increased expression of Srebp1c in Chga-KO mice indicates increased lipogenesis. (G) Decreased expression of gluconeogenic gene Pepck in Chga-KO mice indicates inhibition of gluconeogenesis eventuating in increased sensitivity to insulin. In contrast, augmented expression of Pepck in CST-KO implicates increased gluconeogenesis eventuating in decreased sensitivity to insulin, which is normalized after CST supplementation. Figures in parentheses indicate number of animals.

The next test has as its system db/db mice. As to the kind of experiment: CST treatment of diabetic db/db mice. Type of test: in vivo. An excerpt:
FIG. 15. […] Figures in parentheses indicate number of animals.

The mark [1] stands for this setting: CST-KO mice, CST supplementation.

Entries after “also recorded” stand apart in the source; their conditions may differ. No end group written: not given here.

As to SSMKLSFRARAYGFRGPGPQL [CST], in the test with 3T3-L1 adipocytes, the “leptin production / release” value was “inhibited leptin production; also recorded: inhibited leptin release”. Further, in the test with Chga-KO mice (adipose tissue), the “palmitate oxidation into ASMs” value is on record as “stimulated” and the “14C-palmitate incorporation into lipids” value is “decreased”. Further, in the test with Chga-KO mice (liver), the “palmitate oxidation into ASMs” value is listed as “stimulated” and the “14C-palmitate incorporation into lipids” value is recorded as “enhanced”. Further, in the test on phospholipase C (PLC), the “PLC activity, substance by itself” value was “mildly stimulates PLC”. For the same sequence, the “PLC activation by epinephrine” value with phospholipase C (PLC) (epinephrine 10 μM 10 min) was “attenuated”. For the same sequence, in the test on phospholipase C (PLC) (phenylephrine 10 μM 10 min), the “PLC activation by phenylephrine” value is listed as “attenuated”. The “insulin sensitivity (GTT)” value in the test with HFD-fed Chga-KO mice is “made HFD-fed Chga-KO mice sensitive to insulin”. In the test on CST-KO mice (setting [1]), the “palmitate oxidation in liver” value is reported as “stimulated; also recorded: augmented” and the “palmitate oxidation in muscle” value was “stimulated; also recorded: augmented”. Also, in the test on CST-KO mice (liver of CST-KO mice), the “hepatic expression of Acox” value is on record as “stimulated expression; also recorded: restored”, the “hepatic expression of Cpt1α” value is given as “stimulated expression; also recorded: restored”, the “hepatic expression of Pepck” value is given as “suppressed the expression; also recorded: normalized” and the “hepatic expression of Pparα” value was “stimulated expression; also recorded: restored”. In the test on CST-KO mice (liver of CST-KO mice), the “hepatic expression of Srebp1c” value is given as “stimulated expression”. Also, in the test with db/db mice (CST 10 μg/g/day for 14 days), the “glucose tolerance (GTT)” value is given as “improvement in glucose tolerance; also recorded: improved glucose tolerance”. In the test with db/db mice (CST 14 days), the C-peptide level entry is on record as “without lowering C-peptide levels; also recorded: No change in C-Peptide level” and the C-peptide/Insulin molar ratio result is recorded as “increased; also recorded: higher C-Peptide/insulin molar ratio”. The same sequence returned a plasma insulin level in the test on db/db mice (CST 14 days (untreated db/db 20-30 nM)) of 14 to 18 nM.
